Test results published in ChEMBL document CHEMBL1201862, “PubChem BioAssay data set” (2004).
Calls of active or inactive are those of the source.

Experiments:
[1] = molecular target: G-protein coupled receptor 55 (Homo sapiens, UniProt Q9Y2T6); assay: inhibition of LPI-stimulated GPR55 beta-arrestin translocation – imaging, U2OS, beta-arrestin-GFP, LPI agonist, primary screen (AID 2013); type: functional;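 further: antagonist potency measured as reduced agonist-driven arrestin aggregation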
[2] = molecular target: Glyceraldehyde-3-phosphate dehydrogenase (Homo sapiens, UniProt P04406)
[3] = Vero E6 cell cytotoxicity, dose response, cytotoxicity control for non-replicating M. tuberculosis project, secondary assay (AID 492998); type: functional, VeroE6; details: Vero C1008
cells = type: functional
[4] = THP-1 cell cytotoxicity, dose response, cytotoxicity control for non-replicating M. tuberculosis project (AID 489025); type: functional
[5] = molecular target: T1, Histone-lysine N-methyltransferase NSD2 (Homo sapiens, UniProt O96028); type: biochemical
T1 sequence (O96028 whole entry): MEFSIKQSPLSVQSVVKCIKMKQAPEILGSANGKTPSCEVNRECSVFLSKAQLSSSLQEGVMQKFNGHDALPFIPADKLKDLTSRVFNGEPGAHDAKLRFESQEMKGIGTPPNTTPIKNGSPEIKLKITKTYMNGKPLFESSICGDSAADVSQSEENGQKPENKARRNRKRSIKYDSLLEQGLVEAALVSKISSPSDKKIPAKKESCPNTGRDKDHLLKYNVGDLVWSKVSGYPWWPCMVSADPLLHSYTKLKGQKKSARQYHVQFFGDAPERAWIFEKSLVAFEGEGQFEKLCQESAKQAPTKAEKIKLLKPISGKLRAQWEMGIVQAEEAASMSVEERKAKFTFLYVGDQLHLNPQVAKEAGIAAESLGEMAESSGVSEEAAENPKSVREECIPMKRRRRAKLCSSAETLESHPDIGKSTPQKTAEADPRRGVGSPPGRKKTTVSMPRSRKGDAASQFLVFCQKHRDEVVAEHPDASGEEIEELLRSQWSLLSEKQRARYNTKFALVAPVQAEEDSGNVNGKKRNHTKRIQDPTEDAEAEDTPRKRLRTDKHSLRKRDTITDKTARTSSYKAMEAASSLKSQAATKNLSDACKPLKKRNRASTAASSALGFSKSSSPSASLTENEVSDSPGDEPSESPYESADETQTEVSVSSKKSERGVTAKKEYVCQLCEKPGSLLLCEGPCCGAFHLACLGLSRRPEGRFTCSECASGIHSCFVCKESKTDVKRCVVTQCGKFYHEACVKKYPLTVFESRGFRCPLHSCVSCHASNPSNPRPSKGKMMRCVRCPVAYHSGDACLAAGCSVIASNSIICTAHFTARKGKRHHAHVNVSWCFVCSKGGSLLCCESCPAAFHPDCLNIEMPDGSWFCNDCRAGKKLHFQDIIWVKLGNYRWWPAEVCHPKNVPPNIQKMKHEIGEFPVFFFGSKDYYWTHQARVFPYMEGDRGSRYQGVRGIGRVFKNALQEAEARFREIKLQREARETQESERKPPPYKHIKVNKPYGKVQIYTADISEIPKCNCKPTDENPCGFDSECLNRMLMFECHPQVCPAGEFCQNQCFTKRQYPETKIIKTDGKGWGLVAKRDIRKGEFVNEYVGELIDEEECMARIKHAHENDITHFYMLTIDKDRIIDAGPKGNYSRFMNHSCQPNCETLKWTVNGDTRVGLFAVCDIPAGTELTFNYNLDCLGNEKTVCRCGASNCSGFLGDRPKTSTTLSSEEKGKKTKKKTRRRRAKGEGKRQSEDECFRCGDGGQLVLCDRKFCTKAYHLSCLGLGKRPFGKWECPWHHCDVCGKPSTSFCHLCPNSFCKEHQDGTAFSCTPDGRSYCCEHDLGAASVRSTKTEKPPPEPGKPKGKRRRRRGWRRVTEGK

[6] = microbe, parasite or virus in culture; type: functional; details: Mycobacterium tuberculosis
Leucine aminopeptidase = molecular target: T2, Leucine aminopeptidase (Plasmodium falciparum 3D7, UniProt Q8IL11); assay: P. falciparum M17LAP inhibitors, primary screen, biochemical, fluorogenic H-Leu-NHMec substrate, 1536-well (AID 1619); type: functional
T2 sequence (Q8IL11 whole entry): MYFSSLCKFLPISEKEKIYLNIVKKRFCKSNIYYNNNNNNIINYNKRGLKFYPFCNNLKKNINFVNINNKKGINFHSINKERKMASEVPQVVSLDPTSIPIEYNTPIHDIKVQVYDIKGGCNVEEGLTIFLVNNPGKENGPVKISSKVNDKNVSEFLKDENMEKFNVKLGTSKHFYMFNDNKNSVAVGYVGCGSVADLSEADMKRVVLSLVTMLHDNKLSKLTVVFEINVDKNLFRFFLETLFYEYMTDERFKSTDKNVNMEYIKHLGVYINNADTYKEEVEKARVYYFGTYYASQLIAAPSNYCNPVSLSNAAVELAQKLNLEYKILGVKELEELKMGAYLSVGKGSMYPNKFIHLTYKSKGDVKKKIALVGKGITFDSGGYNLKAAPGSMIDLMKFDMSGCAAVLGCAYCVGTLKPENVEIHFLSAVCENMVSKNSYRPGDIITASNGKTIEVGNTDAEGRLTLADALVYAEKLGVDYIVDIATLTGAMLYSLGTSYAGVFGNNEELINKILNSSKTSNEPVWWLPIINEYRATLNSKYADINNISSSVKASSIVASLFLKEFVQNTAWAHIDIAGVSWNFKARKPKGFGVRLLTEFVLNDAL

[7] = HEK-293T viability loss after treatment – luminescence, T-cell screen hits, cytotoxicity control for TCR NF-kB inhibitor project, dose response (AID 489026); type: functional, cell-based;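 further: cells exposed to compound about 14 hours before the viability readout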
[8] = molecular target: T3, Replicative DNA helicase DnaB (Mycobacterium tuberculosis, UniProt P9WMR3); assay: DnaB intein splicing inhibitors, dose response, biochemical, cell-free fluorescence (AID 449749); type: functional
T3 sequence (P9WMR3 whole entry): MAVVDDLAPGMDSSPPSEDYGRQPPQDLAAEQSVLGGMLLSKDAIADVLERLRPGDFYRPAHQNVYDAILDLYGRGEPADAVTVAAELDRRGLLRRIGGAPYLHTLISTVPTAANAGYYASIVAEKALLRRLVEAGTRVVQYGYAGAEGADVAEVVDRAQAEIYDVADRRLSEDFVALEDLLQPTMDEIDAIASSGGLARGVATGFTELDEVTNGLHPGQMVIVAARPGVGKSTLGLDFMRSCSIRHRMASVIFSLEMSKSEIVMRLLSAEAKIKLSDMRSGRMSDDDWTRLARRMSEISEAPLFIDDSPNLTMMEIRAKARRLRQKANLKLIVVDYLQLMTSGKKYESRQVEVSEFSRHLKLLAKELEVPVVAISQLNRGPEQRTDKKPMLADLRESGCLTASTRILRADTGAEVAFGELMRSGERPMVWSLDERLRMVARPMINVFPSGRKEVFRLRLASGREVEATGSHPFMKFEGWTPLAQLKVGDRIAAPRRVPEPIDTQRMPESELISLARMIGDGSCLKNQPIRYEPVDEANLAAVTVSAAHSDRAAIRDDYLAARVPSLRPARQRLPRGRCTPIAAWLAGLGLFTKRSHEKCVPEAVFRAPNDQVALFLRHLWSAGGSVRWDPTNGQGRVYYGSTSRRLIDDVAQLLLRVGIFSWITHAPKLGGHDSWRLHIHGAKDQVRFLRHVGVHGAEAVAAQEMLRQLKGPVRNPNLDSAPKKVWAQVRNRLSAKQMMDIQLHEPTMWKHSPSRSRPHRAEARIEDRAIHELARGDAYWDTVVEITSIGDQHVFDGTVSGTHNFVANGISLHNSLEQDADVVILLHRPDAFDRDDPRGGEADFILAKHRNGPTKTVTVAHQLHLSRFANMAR

Protein RecA = molecular target: T4, Protein RecA (Mycobacterium tuberculosis, UniProt P9WHJ3); assay: Fluorescence Cell-Free Homogeneous Dose Retest to Identify Inhibitors of RecA-Intein Splicing Activity. [Related pubchem assays (depositor defined):AID2097, AID2223, AID489010, AID492950]; type: functional
T4 sequence (P9WHJ3 whole entry): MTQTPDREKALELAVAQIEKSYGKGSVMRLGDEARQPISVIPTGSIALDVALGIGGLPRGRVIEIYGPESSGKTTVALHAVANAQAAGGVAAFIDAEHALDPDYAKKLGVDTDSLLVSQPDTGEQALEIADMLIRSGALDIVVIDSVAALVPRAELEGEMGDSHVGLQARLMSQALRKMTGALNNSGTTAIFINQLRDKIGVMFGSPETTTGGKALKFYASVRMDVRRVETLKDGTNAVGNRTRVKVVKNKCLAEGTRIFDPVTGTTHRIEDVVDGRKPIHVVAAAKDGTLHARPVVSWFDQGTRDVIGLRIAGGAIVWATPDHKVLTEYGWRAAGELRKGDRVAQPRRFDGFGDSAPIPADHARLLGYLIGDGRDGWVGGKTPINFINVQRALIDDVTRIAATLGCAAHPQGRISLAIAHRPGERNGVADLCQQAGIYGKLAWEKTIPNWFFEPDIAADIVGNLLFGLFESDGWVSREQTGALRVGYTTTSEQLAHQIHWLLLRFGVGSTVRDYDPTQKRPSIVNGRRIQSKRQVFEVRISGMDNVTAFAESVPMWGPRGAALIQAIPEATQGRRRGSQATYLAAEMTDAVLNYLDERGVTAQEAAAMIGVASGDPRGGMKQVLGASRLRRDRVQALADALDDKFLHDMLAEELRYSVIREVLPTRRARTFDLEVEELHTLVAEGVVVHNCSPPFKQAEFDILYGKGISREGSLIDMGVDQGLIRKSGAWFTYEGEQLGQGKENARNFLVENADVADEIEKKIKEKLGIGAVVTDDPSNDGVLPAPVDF

[9] = DRD fibroblast viability loss – cell-based, non-viral oncogenic, luminescence, dose response (AID 1934); type: functional; details: Homo sapiens
[10] = viability of uninfected HEp-2 cells – cell-based, HTS, cytotoxicity control for RSV inhibitor project, dose response (AID 2410); type: functional; details: human respiratory syncytial virus
BJ [11] = assay: cells; type: functional, cell-based; details: Homo sapiens
BJ [12] = assay: BJ-TERT-LT-ST fibroblast viability loss – cell-based, RAS-independent, luminescence, dose response (AID 1935); type: functional; details: Homo sapiens;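 further: BJ fibroblasts immortalized with TERT plus LT and ST oncogenes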
BJ [13] = assay: BJ-TERT fibroblast viability loss – cell-based, RAS-independent, luminescence, dose response (AID 1933); type: functional; details: Homo sapiens
Paired box protein Pax-8 = Paired box protein Pax-8 (Homo sapiens, UniProt Q06710); assay: PAX8 transcriptional activity inhibition in RMG-I – RMG-I cells, luciferase, cherry-pick, dose response (AID 687027); type: functional, cell-based;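 further: luciferase reporter driven by Pax8 target thyroperoxidase promoter measured by SteadyGlo luminescence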
[14] = OVCAR-3 cell viability loss – plate reader, dry powder samples, PAX8 inhibitor project, dose response (AID 743044); type: functional, cell-based
[15] = P. falciparum Dd2 growth inhibitors, dose response, SYBR Green, cherry-picked samples (AID 1159567); type: functional, cell-based

Chain of Glyceraldehyde-3-phosphate dehydrogenase (P04406 whole entry): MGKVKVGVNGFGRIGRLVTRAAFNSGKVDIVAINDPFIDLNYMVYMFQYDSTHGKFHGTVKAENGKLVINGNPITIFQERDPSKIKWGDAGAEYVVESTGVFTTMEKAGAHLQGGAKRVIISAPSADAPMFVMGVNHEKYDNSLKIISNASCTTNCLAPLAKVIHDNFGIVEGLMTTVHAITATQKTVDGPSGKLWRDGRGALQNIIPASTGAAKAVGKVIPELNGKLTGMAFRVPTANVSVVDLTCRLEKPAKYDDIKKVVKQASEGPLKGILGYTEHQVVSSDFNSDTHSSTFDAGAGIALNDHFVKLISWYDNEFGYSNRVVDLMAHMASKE
Chain of Paired box protein Pax-8 (Q06710 whole entry): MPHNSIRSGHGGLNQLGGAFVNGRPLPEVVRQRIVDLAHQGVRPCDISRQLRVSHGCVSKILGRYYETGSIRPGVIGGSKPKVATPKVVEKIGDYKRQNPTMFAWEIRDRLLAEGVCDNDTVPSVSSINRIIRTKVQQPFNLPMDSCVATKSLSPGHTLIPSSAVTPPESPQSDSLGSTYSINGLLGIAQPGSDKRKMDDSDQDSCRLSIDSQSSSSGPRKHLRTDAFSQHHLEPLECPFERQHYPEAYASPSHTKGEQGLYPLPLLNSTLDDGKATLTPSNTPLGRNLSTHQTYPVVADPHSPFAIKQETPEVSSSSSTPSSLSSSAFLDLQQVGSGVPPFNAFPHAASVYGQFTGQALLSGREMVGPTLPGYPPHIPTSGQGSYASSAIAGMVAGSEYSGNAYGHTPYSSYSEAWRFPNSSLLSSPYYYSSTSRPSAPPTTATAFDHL
Chain of G-protein coupled receptor 55 (Q9Y2T6 whole entry): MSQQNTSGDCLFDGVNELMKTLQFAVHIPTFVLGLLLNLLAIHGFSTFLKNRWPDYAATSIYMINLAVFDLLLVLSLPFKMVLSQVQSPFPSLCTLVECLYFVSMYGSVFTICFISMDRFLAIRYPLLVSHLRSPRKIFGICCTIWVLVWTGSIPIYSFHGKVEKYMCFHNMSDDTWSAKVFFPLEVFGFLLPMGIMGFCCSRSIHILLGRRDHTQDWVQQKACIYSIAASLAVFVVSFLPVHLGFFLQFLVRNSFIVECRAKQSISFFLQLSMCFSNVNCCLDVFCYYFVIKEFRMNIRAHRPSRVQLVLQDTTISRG

CC(C)c1ccc(NC(=S)NN(c2ccccc2)c2ccccc2)cc1
IC50 [1]: 0.793 µM (active)

Cc1ccccc1-n1cnnc1SCC(=O)N1CCN(c2ccccc2)CC1
IC50 [2]: 36.3 µM (active)

S=C1SCN(Cc2cccnc2)CN1Cc1ccccc1
CC50 [3]: 11 µM (active)
IC50 (cells): 18.2 µM (active)
CC50 [4]: 15.2 µM (active)

CNCc1ccccc1Sc1ccc(OC)c(OC)c1
AC50 [5]: > 20 µM (inactive)

COc1ccc(SC[C@H](Cc2ccccc2)N2CCN(CCc3ccccc3)CCC2=O)cc1
CC50 [6]: > 40 µM (active)

CC1(C)Cc2c(C#N)c(N3CCN(C(=O)c4ccccc4)CC3)nc(Cc3ccccc3)c2CO1
CC50 [6]: 39 µM (active)

CCN1CCN(C2=C(Cl)C(=O)N(c3ccnc(Cl)c3)C2=O)CC1
IC50 [2]: > 50 µM (inconclusive)

Cc1noc(NS(=O)(=O)c2ccc(NC(=O)CSc3nc4ccccc4s3)cc2)c1C
IC50 (Leucine aminopeptidase): 15.3 µM (active)

CCOc1ccccc1C(=O)Nc1ccc2nc(N3CCN(c4ncccn4)CC3)cc(C)c2c1
IC50 [7]: > 80 µM (inactive)

CCCn1c2c(c(O)c(C(=O)NCCCN(CC)CC)c1=O)CCCC2
AC50 [5]: > 20 µM (inactive)

CC(=O)NC1C(c2nc3ccccc3s2)=C(c2ccccc2)C(=O)N1c1ccc(C)cc1 (configuration not stated)
CC50 [6]: > 40 µM (active)

N#CC1=C(N)Oc2[nH]nc(-c3ccccc3)c2C1c1cccnc1 (configuration not stated)
IC50 (Leucine aminopeptidase): 60.4 µM (active)
AC50 [8]: 6.14 µM (active)
EC50 (Protein RecA): 1.79 µM (active)

COc1ccc(CN2C(=O)/C(=C/c3ccncc3)SC2=S)cc1
EC50 [9]: 16.9 µM (active)
CC50 [10]: 10.3 µM (active)
CC50 [3]: 7.52 µM (active)
EC50 (BJ [11]): > 150 µM (inconclusive)
EC50 (BJ [12]): > 75 µM (inconclusive)
IC50 (cells): 21.2 µM (active)
EC50 (BJ [13]): 13.8 µM (active)
CC50 [4]: 18 µM (active)

Cc1ccc(OCC(=O)Nc2ccc(O)c(C(=O)O)c2)cc1C
IC50 (Leucine aminopeptidase): 19.5 µM (active)

CSc1cccc(CNC(=O)C2CCC(=O)N(Cc3cccc(C(F)(F)F)c3)C2)c1 (configuration not stated)
CC50 [6]: > 40 µM (active)

O=C1C2CC=CCC2C(=O)N1c1nc(-c2cccnc2)n[nH]1 (configuration not stated)
IC50 [2]: > 100 µM (not active)

CC1(C)[N+]([O-])=CC(c2cccs2)=[N+]1[O-]
IC50 (Leucine aminopeptidase): 22.7 µM (active)

CCn1c(NC(=O)C2CCCCC2)nc2ccccc21
CC50 [3]: > 20 µM (active)
IC50 (cells): 1.33 µM (active)
CC50 [4]: 31.7 µM (active)

C[C@@H]1CN([C@H](C)CO)C(=O)c2cc(NS(=O)(=O)c3cccs3)ccc2O[C@@H](C)CCCCO[C@@H]1CN(C)Cc1ccc(C(F)(F)F)cc1
AC50 (Paired box protein Pax-8): 4.55 µM (active)
AC50 [14]: 58.7 µM (active)

COc1ccc(/N=C(/C2=C(O)CCC2)C2CCCCC2)cc1
CC50 [6]: > 40 µM (active)

C/C=C/c1ccc2n(c1=O)C[C@H]1[C@H](CO)[C@@H](C(=O)N3CCC(Cc4ccccc4)CC3)N(CCC)[C@@H]21.C/C=C\c1ccc2n(c1=O)C[C@H]1[C@H](CO)[C@@H](C(=O)N3CCC(Cc4ccccc4)CC3)N(CCC)[C@@H]21
AC50 [15]: 15.8 µM (active)

C[C@@H]1CN([C@@H](C)CO)C(=O)c2cc(C#Cc3ccccc3)cnc2O[C@H]1CN(C)C(=O)CN(C)C
AC50 [15]: 5.45 µM (active)

C=CCC1C=C(Cc2ccccc2)CC(CC=C)N1 (configuration not stated)
AC50 [5]: > 20 µM (inactive)
